pIC50: −log10 of the molar value. Where two headings read alike, the source gives them in different places.
What was measured:
[1] = target: GST-tagged K-Ras mutant / His-tagged hSOS1 (Homo sapiens, UniProt P01116); assay: HTRF assay, K-Ras mutant / SOS1 interaction; type: binding; details: read-out: IC50 against mutant Kras
Procedure, shortened: (§1)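 Compounds tested in duplicate from 10 μM down to 0.01 μM, incubated about 10 min or longer with GST-K-Ras/anti-GST-Eu and His-hSOS1/anti-6His-XL665 in ~5 mM HEPES pH 7.4 buffer with ~150 mM NaCl, DTT, BSA and Igepal. IC50 derived from 665/620 nm emission ratio.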

wildtype Kras / hSOS1 = target: T1, wildtype Kras / hSOS1 (Homo sapiens, UniProt P01116); assay: HTRF assay, wildtype Kras / SOS1 interaction; type: binding; details: read-out: IC50 against wildtype Kras
T1 construct: made in house; host or cells: E. coli BL21 (DE3)
Procedure, shortened: as §1

[2] = compound nos. 102-196, general methodology of example 5
[3] = compound nos. 201-213, general methodology of example 5

T1 sequence (P01116 1-188 isoform P01116-2): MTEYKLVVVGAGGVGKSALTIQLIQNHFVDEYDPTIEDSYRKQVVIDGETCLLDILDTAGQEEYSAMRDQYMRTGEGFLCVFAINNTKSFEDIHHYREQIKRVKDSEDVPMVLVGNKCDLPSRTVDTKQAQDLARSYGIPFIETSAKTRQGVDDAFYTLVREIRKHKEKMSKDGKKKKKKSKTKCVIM
Chain of GST-tagged K-Ras mutant / His-tagged hSOS1 (P01116 whole entry G12D, form open): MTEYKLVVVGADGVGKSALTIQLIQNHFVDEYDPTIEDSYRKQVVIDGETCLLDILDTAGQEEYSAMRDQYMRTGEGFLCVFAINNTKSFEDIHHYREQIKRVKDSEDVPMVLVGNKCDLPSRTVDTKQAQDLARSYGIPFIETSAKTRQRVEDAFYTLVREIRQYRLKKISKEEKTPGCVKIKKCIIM

Structure (SMILES)	pIC50 ([1]; compound nos. 401-703)	pIC50 (wildtype Kras / hSOS1; compound nos. 401-703)	also measured
Cc1ccc2sc(N)nc2c1-c1c(Cl)cc2c(N3CCNCC(F)(F)C3)nc(OCC34CCCN3CCC4)nc2c1O [Compound 426, 7-(2-amino-5-methylbenzo-[d]thiazol-4-yl)-6-chloro-4-(6,6-difluoro-1,4-diazepan-1-yl)-2-((tetrahydro-1H-pyrrolizin-7a(5H)-yl)meth-oxy)quinazolin-8-ol]	< 6.30	> 6.30	–
CN1CCC[C@H]1COc1nc(N2CCCC(NS(C)(=O)=O)CC2)c2cc(Cl)c(-c3cccc4sc(N)nc34)c(F)c2n1 (stereo partly drawn) [Compound 439, N-(1-(7-(2-aminobenzo[d]-thiazol-4-yl)-6-chloro-8-fluoro-2-(((S)-1-methyl-pyrrolidin-2-yl)methoxy)-quinazolin-4-yl)azepan-4-yl)methanesulfonamide]	> 6.30	> 6.30	–
CNCC1CN(c2nc(OCC34CCCN3CCC4)nc3c(F)c(-c4ccc(F)c5sc(N)nc45)c(Cl)cc23)CCCO1 (stereo not shown) [Compound 481, 4-(6-chloro-8-fluoro-4-(2-((methylamino)methyl)-1,4-oxazepan-4-yl)-2-((tetra-hydro-1H-pyrrolizin-7a(5H)-yl)methoxy)quinazolin-7-yl)-7-fluorobenzo[d]thiazol-2-amine]	> 6.30	> 6.30	–
CN1CCC[C@H]1COc1nc(N2CCNC(=O)C(F)(F)C2)c2cc(Cl)c(-c3ccc(F)c4sc(N)nc34)c(F)c2n1 [Compound 112, 1-(7-(2-amino-7-fluoro-benzo[d]thiazol-4-yl)-6-chloro-8-fluoro-2-(((S)-1-methylpyrrolidin-2-yl)meth-oxy)quinazolin-4-yl)-6,6-difluoro-1,4-diazepan-5-one]	–	–	pIC50 [1, 2]: > 6.30; pIC50 (wildtype Kras / hSOS1; [2]): > 6.30
CN1CCC[C@H]1COc1nc(N2CC3CCC(C2)N3)c2cc(Cl)c(-c3cccc4sc(N)nc34)c(F)c2n1 [Compound 565, 4-(4-(3,8-diazabicyclo-[3.2.1]octan-3-yl)-6-chloro-8-fluoro-2-(((S)-1-methyl-pyrrolidin-2-yl)methoxy)-quinazolin-7-yl)benzo[d]-thiazol-2-amine]	> 6.30	< 6.30	–
CN1CCC[C@H]1COc1nc2c(c(N3CCNCC(F)(F)C3)n1)CCC(c1cccc3sc(N)nc13)C2 (stereo partly drawn) [Compound 432, 4-(4-(6,6-difluoro-1,4-diazepan-1-yl)-2-(((S)-1-methylpyrrolidin-2-yl)methoxy)-5,6,7,8-tetrahydroquinazolin-7-yl)benzo[d]thiazol-2-amine]	< 6.30	> 6.30	–
Nc1nc2c(-c3c(Cl)cc4c(N5[C@@H]6CC[C@H]5CC(F)C6)nc(OC[C@@]56CCCN5C[C@H](F)C6)nc4c3F)ccc(F)c2s1 (stereo partly drawn) [Compound 304, 4-(6-chloro-8-fluoro-4-((1R,3S,5S)-3-fluoro-8-azabicyclo[3.2.1]octan-8-yl)-2-(((2R,7aS)-2-fluoro-tetrahydro-1H-pyrrolizin-7a(5H)-yl)methoxy)quin-azolin-7-yl)-7-fluorobenzo-[d]thiazol-2-amine]	–	–	pIC50 ([1]; compound nos. 301-306): > 5.82; pIC50 (wildtype Kras / hSOS1; compound nos. 301-306): > 5.82
CN1CCC[C@H]1COc1nc2c(c(N3CCNCC(F)(F)C3)n1)CCN(c1cc(O)cc3ccccc13)C2 [Compound 419, (S)-4-(4-(6,6-difluoro-1,4-diazepan-1-yl)-2-((1-methylpyrrolidin-2-yl)methoxy)-5,8-dihydropyrido[3,4-d]pyrimidin-7(6H)-yl)naphthalen-2-ol]	> 6.30	> 6.30	–
Nc1ccc(C2CC2)c(-c2ccc3c(N4CC5CCC(C4)N5)nc(OC[C@@]45CCCN4C[C@H](F)C5)nc3c2F)n1 [Compound 458, 6-(4-(3,8-diazabicyclo-[3.2.1]octan-3-yl)-8-fluoro-2-(((2R,7aS)-2-fluorotetra-hydro-1H-pyrrolizin-7a(5H)-yl)methoxy)quinazolin-7-yl)-5-cyclopropylpyridin-2-amine]	< 6.30	> 6.30	–
Nc1nc2c(-c3ccc4c(N5CC6CCC(C5)N6)nc(OC[C@@]56CCCN5C[C@H](F)C6)nc4c3F)ccc(F)c2s1 [Compound 207, 4-(4-((1R,5S)-3,8-diaza-bicyclo[3.2.1]octan-3-yl)-8-fluoro-2-(((2R,7aS)-2-fluoro-tetrahydro-1H-pyrrolizin-7a(5H)-yl)methoxy)quin-azolin-7-yl)-7-fluorobenzo-[d]thiazol-2-amine]	–	–	pIC50 [1, 3]: > 5.82; pIC50 (wildtype Kras / hSOS1; [3]): > 5.82
Cc1cc2c(N3CCNCC(F)(F)C3)nc(OC[C@@H]3CCCN3C)nc2c(F)c1-c1cccc2sc(N)nc12 [Compound 157, 4-(4-(6,6-difluoro-1,4-diazepan-1-yl)-8-fluoro-6-methyl-2-(((S)-1-methyl-pyrrolidin-2-yl)methoxy)-quinazolin-7-yl)benzo[d]-thiazol-2-amine]	–	–	pIC50 [1, 2]: > 6.30; pIC50 (wildtype Kras / hSOS1; [2]): > 6.30
Nc1nccc2c(-c3c(Cl)cc4c(N5CC6CCC(C5)N6)nc(OCC56CCCN5CCC6)nc4c3F)cccc12 [Compound 541, 5-(4-(3,8-diazabicyclo-[3.2.1]octan-3-yl)-6-chloro-8-fluoro-2-((tetrahydro-1H-pyrrolizin-7a(5H)-yl)meth-oxy)quinazolin-7-yl)iso-quinolin-1-amine]	< 6.30	< 6.30	–
Fc1c(Br)ccc2c(N3CC4CCC(C3)N4)nc(OC[C@@]34CCCN3C[C@H](F)C4)nc12 [Compound 537, 4-(3,8-diazabicyclo[3.2.1]-octan-3-yl)-7-bromo-8-fluoro-2-(((2R,7aS)-2-fluorotetrahydro-1H-pyrrol-izin-7a(5H)-yl)methoxy)-quinazoline]	< 6.30	< 6.30	–
Nc1nc2c(-c3c(Cl)cc4c(N5CCOCC(N)C5)nc(OCC56CCCN5CCC6)nc4c3F)ccc(F)c2s1 (stereo not shown) [Compound 165, 4-(7-(2-amino-7-fluoro-benzo[d]thiazol-4-yl)-6-chloro-8-fluoro-2-((tetra-hydro-1H-pyrrolizin-7a(5H)-yl)methoxy)quinazolin-4-yl)-1,4-oxazepan-6-amine]	–	–	pIC50 [1, 2]: > 6.30; pIC50 (wildtype Kras / hSOS1; [2]): > 6.30
CN1CCC[C@H]1COc1nc(N2CCNCC(F)(F)C2)c2cc(Cl)c(-c3cccc4nc(N)oc34)c(F)c2n1 [Compound 166, 7-(6-chloro-4-(6,6-difluoro-1,4-diazepan-1-yl)-8-fluoro-2-(((S)-1-methylpyrrolidin-2-yl)methoxy)quinazolin-7-yl)benzo[d]oxazol-2-amine]	–	–	pIC50 [1, 2]: < 6.30; pIC50 (wildtype Kras / hSOS1; [2]): < 6.30
Cc1ccc2cnn(CC#N)c2c1-c1c(Cl)cc2c(N3CC4CCC(C3)N4)nc(OC[C@@]34CCCN3C[C@H](F)C4)nc2c1F [Compound 549, 2-(7-(4-(3,8-diazabicyclo-[3.2.1]octan-3-yl)-6-chloro-8-fluoro-2-(((2R,7aS)-2-fluorotetrahydro-1H-pyrrol-izin-7a(5H)-yl)methoxy)-quinazolin-7-yl)-6-methyl-1H-indazol-1-yl)acetonitrile]	< 6.30	< 6.30	–
CC(C)CCN1[C@@H]2CC[C@H]1CN(c1nc(OCC34CCCN3CCC4)nc3c(F)c(-c4ccc(F)c5sc(N)nc45)c(Cl)cc13)C2 [Compound 682, 4-(6-chloro-8-fluoro-4-((1R,5S)-8-isopentyl-3,8-diazabicyclo[3.2.1]octan-3-yl)-2-((tetrahydro-1H-pyr-rolizin-7a(5H)-yl)methoxy)-quinazolin-7-yl)-7-fluoro-benzo[d]thiazol-2-amine]	> 6.30	< 6.30	–
